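Each compound was tested at five concentrations against cells in 96-well plates for 48 hours. The concentration for 50% growth inhibition is given as GI50.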 Calls of active or inactive are those of the source. Cut-off read from the data, not from the text of the source: active = GI50 up to about 1.1 µM and inactive = higher.
Legend:
Assay in all cases: NCI-60 cell line screen, 48 h
OVCAR-3 = test system: OVCAR-3
EKVX = test system: EKVX
OVCAR-8 = test system: OVCAR-8
SK-MEL-28 = test system: SK-MEL-28
TK-10 = test system: TK-10
MCF7 = test system: MCF7
A549 = test system: A549
PC-3 = test system: PC-3
HOP-92 = test system: HOP-92
NCI-H23 = test system: NCI-H23
UO-31 = test system: UO-31
NCI-H226 = test system: NCI-H226
Hs-578T = test system: Hs-578T
U-251 = test system: U-251
MDA-N = test system: MDA-N
MDA-MB-435 = test system: MDA-MB-435
SN12C = test system: SN12C
K562 = test system: K562
786-0 = test system: 786-0
RPMI-8226 = test system: RPMI-8226
BT-549 = test system: BT-549
NCI/ADR-RES = test system: NCI/ADR-RES
SW-620 = test system: SW-620
SR = test system: SR
HCT-116 = test system: HCT-116
SK-MEL-5 = test system: SK-MEL-5
KM12 = test system: KM12
HOP-62 = test system: HOP-62
SK-MEL-2 = test system: SK-MEL-2
M14 = test system: M14
CAKI-1 = test system: CAKI-1
SF-539 = test system: SF-539
SNB-19 = test system: SNB-19
SF-268 = test system: SF-268
HCC 2998 = test system: HCC 2998
NCI-H522 = test system: NCI-H522
ACHN = test system: ACHN
DU-145 = test system: DU-145
LOX IMVI = test system: LOX IMVI
A498 = test system: A498
MOLT-4 = test system: MOLT-4
IGROV-1 = test system: IGROV-1
HCT-15 = test system: HCT-15
UACC-62 = test system: UACC-62
NCI-H460 = test system: NCI-H460
COLO 205 = test system: COLO 205
CCRF-CEM = test system: CCRF-CEM
T47D = test system: T47D
HT-29 = test system: HT-29
UACC-257 = test system: UACC-257
SK-OV-3 = test system: SK-OV-3
SF-295 = test system: SF-295
OVCAR-5 = test system: OVCAR-5
RXF 393 = test system: RXF 393
OVCAR-4 = test system: OVCAR-4
MDA-MB-231 = test system: MDA-MB-231
SNB-75 = test system: SNB-75

For `C#Cc1nc(N)c2ncn(C3OC(COS(N)(=O)=O)C(O)C3O)c2n1` (configuration not stated), the GI50 (OVCAR-3) was < 19.4 nM (active), the GI50 (EKVX) was 262 nM (active) and the GI50 (OVCAR-8) was 18.8 nM (active). For the same compound, the GI50 (SK-MEL-28) was 37.4 nM (active), the GI50 (TK-10) was < 22 nM (active) and the GI50 (MCF7) was 12.4 nM (active). The GI50 (A549) was 88.1 nM (active), the GI50 (PC-3) was < 20.4 nM (active) and the GI50 (HOP-92) was < 10 nM (active). The GI50 (NCI-H23) was < 16.4 nM (active), the GI50 (UO-31) was < 18.7 nM (active) and the GI50 (NCI-H226) was 15.8 nM (active). For the same compound, the GI50 (Hs-578T) was 37.9 nM (active), the GI50 (U-251) was 21.3 nM (active) and the GI50 (MDA-N) was < 16.8 nM (active). The GI50 (MDA-MB-435) was 16 nM (active), the GI50 (SN12C) was 17.2 nM (active) and the GI50 (K562) was 13.1 nM (active). The GI50 (786-0) was 36.7 nM (active), the GI50 (RPMI-8226) was 17.2 nM (active) and the GI50 (BT-549) was < 10 nM (active). The GI50 (NCI/ADR-RES) was < 18.4 nM (active), the GI50 (SW-620) was < 24.8 nM (active) and the GI50 (SR) was < 10 nM (active). For the same compound, the GI50 (HCT-116) was 18.4 nM (active), the GI50 (SK-MEL-5) was 36.1 nM (active) and the GI50 (KM12) was < 19.3 nM (active). For the same compound, the GI50 (HOP-62) was 146 nM (active), the GI50 (SK-MEL-2) was 10.1 nM (active) and the GI50 (M14) was < 42.6 nM (active). The GI50 (CAKI-1) was 55.9 nM (active), the GI50 (SF-539) was 36.2 nM (active) and the GI50 (SNB-19) was 20.8 nM (active). For the same compound, the GI50 (SF-268) was 18 nM (active), the GI50 (HCC 2998) was < 10 nM (active) and the GI50 (NCI-H522) was < 10 nM (active). For the same compound, the GI50 (ACHN) was < 14.6 nM (active), the GI50 (DU-145) was 51.8 nM (active) and the GI50 (LOX IMVI) was < 17.6 nM (active). The GI50 (A498) was < 14.8 nM (active), the GI50 (MOLT-4) was < 18.1 nM (active) and the GI50 (IGROV-1) was 29.1 nM (active). The GI50 (HCT-15) was less than 21.4 nM, the GI50 (UACC-62) was 53.7 nM (active) and the GI50 (NCI-H460) was < 19.3 nM (active). For the same compound, the GI50 (COLO 205) was 27.7 nM (active), the GI50 (CCRF-CEM) was < 18.9 nM (active) and the GI50 (T47D) was < 10 nM (active). For the same compound, the GI50 (HT-29) was 23.3 nM (active), the GI50 (UACC-257) was < 31.8 nM (active) and the GI50 (SK-OV-3) was < 10 nM (active). For the same compound, the GI50 (SF-295) was 757 nM (active), the GI50 (OVCAR-5) was < 14.8 nM (active) and the GI50 (RXF 393) was < 17.9 nM (active). The GI50 (OVCAR-4) was < 19.3 nM (active), the GI50 (MDA-MB-231) was < 18.5 nM (active) and the GI50 (SNB-75) was 20 nM (active).
